Reference: US7476514B2, “Method for monitoring the immune response and predicting clinical outcomes in transplant recipients” (Cylex, Inc., priority 2002, dated 2009)

System: CD4 cells
Experiment: Cylex Immune Cell Function Assay (ImmuKnow): PHA-stimulated intracellular ATP in CD4 cells from whole blood of treated transplant patient
Type: cell-based, human
Protocol: Whole blood (100 μl of a 1:4 dilution) was tested in quadruplicate with or without phytohemagglutinin (PHA) (2.5 μg/mL) overnight (15-18 hours in a CO2 incubator at 37° C.). Anti-human CD4 monoclonal antibody coated magnetic particles (Dynal Biotech A.S.A., Oslo, Norway) were added to immunoselect CD4 cells from both the stimulated and non-stimulated wells. After washing the CD4 cells selected on a strong magnet (Cylex™ Cat. 1050) a lysing reagent was added to release intracellular ATP. A luciferin/luciferase mixture was then added to the cell lysate. Within 30 minutes after addition of enzyme, the bioluminescent product was measured in a luminometer (PHL Mediators, Austria or Berthold, Maryville, Tenn., or Turner Designs, Sunnyvale, Calif.) (See FIG. 1). The amount of light emitted (emission maximum 562 nm) was compared to a standard curve generated with ATP calibrators (0, 1, 10, 100, 1000 ng/mL). The concentration of ATP (ng/mL) in each sample was then calculated from the calibration curve using an Excel-based program provided by Cylex™.
To perform the assay, 200 μl of sodium heparin anticoagulated whole blood was diluted, aliquoted into wells of a 96-well microtiter plate and stimulated overnight with PHA. CD4+ cells were then selected using antibody-coated magnetic particles, washed and lysed to release intracellular ATP. The intensity of the patient's immune response was quantified by measuring the amount of intracellular ATP produced in response to stimulation.
To perform the Cylex™ Immune Cell Function Assay, 200 μl of sodium heparin anticoagulated whole blood was diluted, aliquoted into wells of a 96-well microtiter plate and stimulated overnight with PHA. CD4+ cells were then selected using antibody-coated magnetic particles, washed and lysed to release intracellular ATP. The intensity of the patient's immune response was quantified by measuring the amount of intracellular ATP produced in response to stimulation. Acute rejection was diagnosed by histopathologic studies of random and endoscopically guided multiple mucosal biopsies. […]

Row | Molecule | change of immune response (ATP) (Case Study 2, Solumedrol re-initiated after week 43, read at week 44) | immune response (ATP) (Case Study 2, multivisceral transplant recipient with acute rejection, week 39, after initial infusion of OKT3/FK and Solumedrol) [ng/mL] | immune response (ATP) (Case Study 2, after additional three-day course of OKT3) [ng/mL]
1 | C[C@H]1C[C@@H]2[C@H]([C@@H](O)C[C@@]3(C)[C@H]2CC[C@]3(O)C(=O)COC(=O)CCC(=O)[O-])[C@@]2(C)C=CC(=O)C=C12.[Na+] [Solumedrol, methylprednisolone] | dropped significantly | – | –
2 | OKT3: monoclonal antibody OKT3 (anti-CD3), antilymphocyte drug | – | 954 | 582
